Laboratory results: ChEMBL document CHEMBL4007395 (J Med Chem, 2017)

Key:
[1] = Apparent permeability in human Caco2 cells; type: ADME, cell-based; details: Caco-2
Mus musculus = assay: Cmax in mouse at 100 mg/kg, po after 30 mins; type: ADME, organism-based; parameters: dose 100 mg/kg, route oral; details: in vivo, 0.5 h
Plasma [2] = assay: Plasma concentration in human at 8 g/day, po by HPLC/TMS; type: ADME, organism-based; details: in vivo
[3] = Drug uptake in human rectal mucosa assessed per gram protein at 2 g/day for 30 days; type: ADME; details: 720 h
[4] = Inhibition of HIV-2 protease using anthranilyl-HIV protease as substrate preincubated for 5 mins followed by substrate addition by fluorescence assay; parameters: species or system Human immunodeficiency virus 2
Plasma [5] = assay: Drug metabolism in human plasma assessed as curcumin sulfate formation at 3.6 g, po administered as capsule measured at 1 hr post dose by UV-HPLC-MS analysis; type: ADME, organism-based; details: in vivo
[6] = target: Glycogen synthase kinase-3 beta (Rattus norvegicus, UniProt P18266); assay: Inhibition of recombinant rat N-terminal GST-tagged GSK3beta expressed in Escherichia coli assessed as reduction in tau phosphorylation preincubated for 30 mins followed by tau protein addition measured after 1 hr by ELISA
Chain of Glycogen synthase kinase-3 beta (P18266 whole entry): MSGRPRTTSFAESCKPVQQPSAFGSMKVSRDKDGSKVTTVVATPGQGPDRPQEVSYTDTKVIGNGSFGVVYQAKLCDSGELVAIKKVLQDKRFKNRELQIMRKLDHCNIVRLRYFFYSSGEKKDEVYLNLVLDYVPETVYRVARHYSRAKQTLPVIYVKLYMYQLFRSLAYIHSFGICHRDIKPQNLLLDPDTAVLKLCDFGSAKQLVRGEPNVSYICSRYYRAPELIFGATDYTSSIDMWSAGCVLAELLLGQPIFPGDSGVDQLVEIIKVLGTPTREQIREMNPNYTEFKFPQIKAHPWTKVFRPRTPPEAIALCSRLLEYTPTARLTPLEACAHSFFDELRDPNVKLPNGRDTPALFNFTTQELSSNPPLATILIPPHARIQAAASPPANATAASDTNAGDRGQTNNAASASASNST

[7] = Plasma concentration in human at 3.6 g, po administered as capsule measured at 1 hr post dose by UV-RP-HPLC method; type: ADME, organism-based
[8] = Oral bioavailability in Sprague-Dawley rat at 500 mg/kg by LC-MS/MS analysis; type: ADME, organism-based; details: in vivo
[9] = Half-life in Sprague-Dawley rat at 500 mg/kg, po by LC-MS/MS analysis; type: ADME, organism-based; details: in vivo
[10] = Inhibition of malate dehydrogenase (unknown origin) using oxaloacetate as substrate preincubated for 5 mins followed by substrate addition by UV-vis spectrophotometric method; parameters: species or system Homo sapiens
[11] = Cmax in human at 12 g, po administered as single dose capsule after 2 hrs by UV-HPLC method; type: ADME, organism-based; parameters: dose 12 g, route oral; details: in vivo
Homo sapiens [12] = species: Homo sapiens; assay: Effect on total aberrant foci number in human colon cancer patient at 4 g/day for 30 days during phase IIa trial by colonoscopic analysis; type: functional
[13] = Half-life in Tris-HCl buffer at 70 uM at pH 7.5 by UV/Vis spectrophotometric method; type: physicochemical
[14] = Drug uptake in human rectal mucosa assessed per gram protein at 4 g/day for 30 days; type: ADME; details: 720 h
Plasma [15] = assay: Drug metabolism in human plasma assessed as curcumin glucuronide formation at 3.6 g, po administered as capsule measured at 1 hr post dose by UV-HPLC-MS analysis; type: ADME, organism-based; details: in vivo
[16] = Inhibition of Escherichia coli AmpC beta-lactamase using CENTA as substrate preincubated for 5 mins followed by substrate addition by UV-vis spectrophotometric method
[17] = Inhibition of malate dehydrogenase (unknown origin) using oxaloacetate as substrate preincubated for 5 mins followed by substrate addition in presence of nonionic detergent Triton-X-100 by UV-vis spectrophotometric method; parameters: species or system Homo sapiens
[18] = Inhibition of Escherichia coli AmpC beta-lactamase using CENTA as substrate preincubated for 5 mins followed by substrate addition in presence of nonionic detergent Triton-X-100 by UV-vis spectrophotometric method
[19] = Inhibition of HIV-2 protease using anthranilyl-HIV protease as substrate preincubated for 5 mins followed by substrate addition in presence of nonionic detergent Triton-X-100 by fluorescence assay; parameters: species or system Human immunodeficiency virus 2
[20] = Half-life in Tris-HCl buffer at 70 uM at pH 7.2 by UV/Vis spectrophotometric method; type: physicochemical
Homo sapiens [21] = species: Homo sapiens; assay: Effect on total aberrant foci number in human colon cancer patient at 2 g/day for 30 days during phase IIa study by colonoscopic analysis; type: functional

For `COc1cc(/C=C/C(=O)CC(=O)/C=C/c2ccc(O)c(OC)c2)ccc1O` [CURCUMIN], the Papp [1] was 31.8 nm/s, the Cmax (Mus musculus) was 0.06 µM and the Cp (Plasma [2]) was 0.022 to 0.041 µg/mL. The Drug uptake [3] was 8.2 µg, the IC50 [4] was 9 µM and the Drug metabolism (Plasma [5]) was 8.9 nmol/L. For the same compound, the IC50 [6] was 0.066 µM, the concentration at 1 h [7] was 0.0111 µg/mL and the bioavailability [8] was < 1%. For the same compound, the half-life [9] was < 5 min, the IC50 [10] was 9 µM and the Cmax [11] was 0.0576 µg/mL. For the same compound, the Activity (Homo sapiens [12]) was 6, the half-life at 70 µM [13] was 20 min and the Drug uptake [14] was 3.8 µg. For the same compound, the Drug metabolism (Plasma [15]) was 15.8 nmol/L, the IC50 [16] was 12 µM and the IC50 [17] was > 30 µM. For the same compound, the IC50 [18] was > 30 µM, the IC50 [19] was > 100 µM and the half-life at 70 µM [20] was < 10 min. It also gave an Activity (Homo sapiens [21]) of 0.
